“And” between values parts separate entries of the source, which are not always exact repeats. Equal values may be shown once.
Experiments:
[1] = tested on: Murine EL-4 lymphoma cell line overexpressing human RORγt; assay: IL-17 secretion from EL4 murine lymphoma; format: cell-based; conditions: Mus musculus; human RORγt-transfected EL4 cells, PMA (10 ng/mL) and ionomycin (1 μM), 24 h; read-out: IC50, IL-17 secretion inhibition
Outline: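 EL-4 cells electroporated with hRORγt plasmid, seeded at 150000 cells/well and pretreated with compound for 24 h, then stimulated with PMA (10 ng/mL) plus ionomycin (1 μM final) with compound for a further 24 h at 37 °C. IL-17 in supernatant measured by HTRF or ELISA.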

human RORγt = biological target: T1, human RORγt (Homo sapiens, UniProt P51449); assay: RORE Luciferase/RORγt transactivation assay; format: cell-based; conditions: COS-7 cells transfected with human IL-17 promoter luciferase reporter and RORγt plasmid; 20 h with compound; read-out: IC50, RORγt activity inhibition
T1 construct: the full-length cDNA of human RORγt; expressed in transfected cells; host or cells: COS-7 (monkey kidney)
T1 sequence (P51449 1-497 isoform P51449-2): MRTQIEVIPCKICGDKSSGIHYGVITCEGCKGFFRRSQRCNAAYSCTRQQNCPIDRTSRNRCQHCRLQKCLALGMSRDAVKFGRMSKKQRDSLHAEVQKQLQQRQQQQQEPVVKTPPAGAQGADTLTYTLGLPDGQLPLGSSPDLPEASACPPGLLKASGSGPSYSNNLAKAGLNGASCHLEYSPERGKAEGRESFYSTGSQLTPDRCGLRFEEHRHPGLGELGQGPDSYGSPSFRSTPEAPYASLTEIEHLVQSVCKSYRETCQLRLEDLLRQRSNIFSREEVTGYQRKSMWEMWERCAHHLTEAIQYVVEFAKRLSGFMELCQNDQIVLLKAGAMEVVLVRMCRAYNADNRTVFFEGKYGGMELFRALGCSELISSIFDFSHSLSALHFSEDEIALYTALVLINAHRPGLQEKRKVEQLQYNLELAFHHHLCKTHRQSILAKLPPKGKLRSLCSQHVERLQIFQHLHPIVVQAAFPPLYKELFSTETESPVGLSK
Outline: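 COS-7 cells were transiently co-transfected with a human IL-17 promoter (RORE/CNS)–luciferase reporter and a RORγt expression plasmid, then seeded at 10000 cells/well in serum-free, phenol red-free DMEM. Compounds were added at 0.3% DMSO final. Luciferase was read with Steady-Glo, and IC50 and Emax were derived.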

[2] = biological target: T2, RORγt ligand-binding domain (RORγt-LBD) (Homo sapiens, UniProt P51449); assay: Time-resolved FRET (TR-FRET) RORγt coactivator assay; conditions: GST-RORγ-LBD, biotinylated RIP140 peptide, 2 hours at room temperature
T2 construct: 20 nM recombinantly expressed RORγ-LBD fused to GST
T2 sequence (P51449 269-508 limits assumed): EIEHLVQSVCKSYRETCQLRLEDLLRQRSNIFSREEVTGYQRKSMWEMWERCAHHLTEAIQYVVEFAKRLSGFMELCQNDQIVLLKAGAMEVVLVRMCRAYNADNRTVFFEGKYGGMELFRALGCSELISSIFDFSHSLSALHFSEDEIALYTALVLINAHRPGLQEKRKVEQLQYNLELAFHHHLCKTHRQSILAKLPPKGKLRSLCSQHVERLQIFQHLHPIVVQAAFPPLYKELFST
Description: Time-resolved FRET (TR-FRET) RORγt coactivator assay was used to identify RORγ modulator compounds with ligand-dependent coactivator displacement. The assay uses a d2-labeled anti-GST antibody, synthetic N-terminally biotinylated peptide which is derived from nuclear receptor coactivator protein RIP140, and a RORγt ligand-binding domain (RORγt-LBD) that is tagged with glutathione-S-transferase (GST). The influence of compounds on the RORγ-peptide interaction relies on the binding dependent energy transfer from a donor to an acceptor fluorophor attached to the binding partner of interest. […] For reduction of background from compound fluorescence, TR-FRET method makes use of generic fluorophore labels and time resolved detection.
The assays were done in a final volume of 20 μl in a 384 well plate in a CHAPS buffer (2 mM CHAPS; 1 mM DTT, 2 mM EDTA; 0.1% BSA), containing 20 nM recombinantly expressed RORγ-LBD fused to GST, 30 nM N-terminally biotinylated peptide, 1 nM streptavidin-terbium conjugate and 20 nM d2 labeled-anti-GST. Test compounds were diluted using 10 mM stock solution. The range of the final compound concentrations used in this test was from 0.3 nM to 30 μM (logarithmic scale). DMSO content of the samples was kept at 1%. The assay was equilibrated for 2 hours in the dark at room temperature in 384 well plates (Falcon). The signal was detected by an Ultra384 reader (TECAN). […] Compounds that promote coactivator displacement induce a concentration-dependent decrease in time-resolved fluorescent signal. Data were collected and analyzed using GraphPad Prism software (GraphPad Software V5.02, San Diego Calif. USA). IC50 in μM and Emax in % were reported for each compound.

| IC50 [1] | IC50 (human RORγt) | IC50 [2] | melting point | Structure (SMILES) |
| --- | --- | --- | --- | --- |
| 100 to 1000 nM | 100 to 1000 nM | 100 to 1000 nM | – | Cc1ccc(C(NC(=O)Cc2ccc3c(c2)OCC(=O)N3)c2ccccc2)c(N2CCCCC2)c1 (centres unmarked) [Cpd. 1, N-{[4-methyl-2-(piperidin-1-yl)phenyl](phenyl)methyl}-2-(3-oxo-3,4-dihydro-2H-1,4-benzoxazin-7-yl)acetamide] |
| 1000 to 10000 nM | 1000 to 10000 nM | 100 to 1000 nM | – | O=C1COc2cc(CC(=O)NC(c3ccccc3)c3ccccc3N3CCCCC3)ccc2N1 (centres unmarked) [Cpd. 3, 2-(3-oxo-3,4-dihydro-2H-1,4-benzoxazin-7-yl)-N-{phenyl[2-(piperidin-1-yl)phenyl]methyl}acetamide] |
| 100 to 1000 nM | 100 to 1000 nM | 10 to 100 nM | – | COc1ccc(C(NC(=O)Cc2ccc3c(c2)OCC(=O)N3)c2ccccc2)c(N2CCCCC2)c1 (centres unmarked) [Cpd. 4, N-{[4-methoxy-2-(piperidin-1-yl)phenyl](phenyl)methyl}-2-(3-oxo-3,4-dihydro-2H-1,4-benzoxazin-7-yl)acetamide] |
| > 10000 nM | 1000 to 10000 nM | 10 to 100 nM | – | O=C1COc2cc(CC(=O)NC(c3ccccc3)c3ccccc3N3CCCC3)ccc2N1 (centres unmarked) [Cpd. 5, 2-(3-oxo-3,4-dihydro-2H-1,4-benzoxazin-7-yl)-N-{phenyl[2-(pyrrolidin-1-yl)phenyl]methyl}acetamide] |
| – | 1000 to 10000 nM | 10 to 100 nM | – | O=C1Cc2cc(CC(=O)NC(c3ccccc3)c3ccccc3N3CCCCC3)ccc2N1 (centres unmarked) [Cpd. 15, 2-(2-oxo-2,3-dihydro-1H-indol-5-yl)-N-{phenyl[2-(piperidin-1-yl)phenyl]methyl}acetamide] |
| – | 1000 to 10000 nM | 10 to 100 nM | – | O=C(Cc1ccc2c(c1)CS(=O)(=O)N2)NC(c1ccccc1)c1ccccc1N1CCCCC1 (centres unmarked) [Cpd. 26, 2-(2,2-dioxo-1,3-dihydro-2,1-benzothiazol-5-yl)-N-{phenyl[2-(piperidin-1-yl)phenyl]methyl}acetamide] |

The remaining lines, values behind:

| Structure (SMILES) | IC50 [1] | IC50 (human RORγt) | IC50 [2] | melting point |
| --- | --- | --- | --- | --- |
| CSc1ccc2cc(CC(=O)NC(c3ccc(C)o3)c3ccc(C)cc3N3CCCCC3)ccc2c1 (centres unmarked) [Cpd. 91, N-{[4-methyl-2-(piperidin-1-yl)phenyl](5-methylfuran-2-yl)methyl}-2-[6-(methylsulfanyl)naphthalen-2-yl]acetamide] | 100 to 1000 nM | 10 to 100 nM | 100 to 1000 nM | – |
| Cc1ccc(C(NC(=O)C2(c3ccc4c(c3)CC(=O)N4)CC2)c2ccc(Cl)o2)c(C)c1 (centres unmarked) [Cpd. 86, N-[(5-chlorofuran-2-yl)(2,4-dimethylphenyl)methyl]-1-(2-oxo-2,3-dihydro-1H-indol-5-yl)cyclopropane-1-carboxamide] | < 100 nM | < 10 nM | < 10 nM | – |
| Cc1ccc(C(NC(=O)Cc2ccc3c(c2)CC(=O)N3)c2ccccc2)c(N2CCCCC2)c1 (centres unmarked) [Cpd. 16, N-{[4-methyl-2-(piperidin-1-yl)phenyl](phenyl)methyl}-2-(2-oxo-2,3-dihydro-1H-indol-5-yl)acetamide] | 100 to 1000 nM | 100 to 1000 nM and 10 to 100 nM | 10 to 100 nM | – |
| Cc1ccc(C(NC(=O)C2(c3ccc4[nH]cc(CCO)c4c3)CC2)c2ccc(C)o2)c(C)c1 (centres unmarked) [Cpd. 60, N-[(2,4-dimethylphenyl)(5-methylfuran-2-yl)methyl]-1-[3-(2-hydroxyethyl)-1H-indol-5-yl]cyclopropane-1-carboxamide] | < 100 nM | < 10 nM | < 10 nM | – |
| Cc1ccc(C(NC(=O)Cc2ccc3c(c2)OC(C)(C)C(=O)N3)c2ccc(C)o2)c(N2CCCCC2)c1 (centres unmarked) [Cpd. 25, 2-(2,2-dimethyl-3-oxo-3,4-dihydro-2H-1,4-benzoxazin-7-yl)-N-{[4-methyl-2-(piperidin-1-yl)phenyl](5-methylfuran-2-yl)methyl}acetamide] | 1000 to 10000 nM | 100 to 1000 nM | 100 to 1000 nM | – |
| Cc1ccc(C(NC(=O)Cc2ccc3c(c2)C(=Cc2cnc(N)s2)C(=O)N3)c2ccc(C)o2)c(N2CCCCC2)c1 (centres unmarked) [Cpd. 44, 2-{3-[(2-amino-1,3-thiazol-5-yl)methylidene]-2-oxo-2,3-dihydro-1H-indol-5-yl}-N-{[4-methyl-2-(piperidin-1-yl)phenyl](5-methylfuran-2-yl)methyl}acetamide] | 1000 to 10000 nM | 100 to 1000 nM | 100 to 1000 nM | – |
| Cc1ccc(C(NC(=O)C2(c3ccc4c(c3)C(=O)C(=O)N4)CC2)c2ccc(C)o2)c(C)c1 (centres unmarked) [Cpd. 125, N-[(2,4-dimethylphenyl)(5-methylfuran-2-yl)methyl]-1-(2,3-dioxo-2,3-dihydro-1H-indol-5-yl)cyclopropane-1-carboxamide] | < 100 nM | 10 to 100 nM | < 10 nM | – |
| CCSc1nc2cc(CC(=O)NC(c3ccccc3)c3ccc(C)cc3Br)ccc2[nH]1 (centres unmarked) [Cpd. 92, N-[(2-bromo-4-methylphenyl)(phenyl)methyl]-2-[2-(ethylsulfanyl)-1H-1,3-benzodiazol-5-yl]acetamide] | 100 to 1000 nM | 10 to 100 nM | 100 to 1000 nM | – |
| Cc1ccc(C(NC(=O)Cc2ccc3c(c2)/C(=C\C(C)C)C(=O)N3)c2ccc(C)o2)c(N2CCCCC2)c1 (centres unmarked) [Cpd. 48, N-{[4-methyl-2-(piperidin-1-yl)phenyl](5-methylfuran-2-yl)methyl}-2-[(3E)-3-(2-methylpropylidene)-2-oxo-2,3-dihydro-1H-indol-5-yl]acetamide] | – | 100 to 1000 nM | 100 to 1000 nM | 91 °C |
| Cc1ccc(C(NC(=O)C2(c3ccc4c(c3)OCC(=O)N4)CC2)c2ccc(C)o2)c(C)c1 (centres unmarked) [Cpd. 59, N-[(2,4-dimethylphenyl)(5-methylfuran-2-yl)methyl]-1-(3-oxo-3,4-dihydro-2H-1,4-benzoxazin-7-yl)cyclopropane-1-carboxamide] | < 100 nM | < 10 nM | < 10 nM | – |
| Cc1ccc(C(NC(=O)Cc2ccc3c(ccn3CCC(=O)O)c2)c2ccc(C)o2)c(C)c1 (centres unmarked) [Cpd. 101, 3-[5-({[(2,4-dimethylphenyl)(5-methylfuran-2-yl)methyl]carbamoyl}methyl)-1H-indol-1-yl]propanoic acid] | – | 100 to 1000 nM | 10 to 100 nM | 65 °C |
| Cc1ccc(C(NC(=O)Cc2cccc3c2CN(S(C)(=O)=O)C3)c2ccc(C)o2)c(N2CCCCC2)c1 (centres unmarked) [Cpd. 50, 2-(2-methanesulfonyl-2,3-dihydro-1H-isoindol-4-yl)-N-{[4-methyl-2-(piperidin-1-yl)phenyl](5-methylfuran-2-yl)methyl}acetamide] | – | 100 to 1000 nM | 1000 to 10000 nM | – |
| Cc1ccc(C(NC(=O)Cc2ccc3c(ccn3CCC(=O)O)c2)c2ccc(C)o2)c(Br)c1 (centres unmarked) [Cpd. 102, 3-[5-({[(2-bromo-4-methylphenyl)(5-methylfuran-2-yl)methyl]carbamoyl}methyl)-1H-indol-1-yl]propanoic acid] | – | 100 to 1000 nM | 10 to 100 nM | 70 °C |
| Cc1ccc(C(NC(=O)Cc2ccc3c(c2)OC(C)(C)C(=O)N3)c2ccccc2)c(N2CCOCC2)c1 (centres unmarked) [Cpd. 21, 2-(2,2-dimethyl-3-oxo-3,4-dihydro-2H-1,4-benzoxazin-7-yl)-N-{[4-methyl-2-(morpholin-4-yl)phenyl](phenyl)methyl}acetamide] | – | 100 to 1000 nM | 100 to 1000 nM | – |

— US11052092B2, “N-{[2-(piperidin-1-yl)phenyl](phenyl)methyl}-2-(3-oxo-3,4-dihydro-2H-1,4-benzoxazin-7-yl)acetamide derivatives and related compounds as ROR-gamma modulators for treating autoimmune diseases” (Genfit, priority 2017, dated 2021)
